For series [1] the following is noted: for Whole-body conc D 50 High / Whole-body conc D 50 Med: day 50 (after depuration), wet weight, < = reporting limit; for Whole-body conc D 50 Med: medium dose.
A short description of series [2]: Apparent half-life during depuration phase. As to conditions: whole-body, apparent first order.
Series [3] relates to mitochondrial respiration. As to conditions: ref Schnellmann et al., 1990; Shim et al., 2016; cited from earlier work.
For series [4] the following is noted: in vivo; cited from earlier work.
The subject of the next series is fish. As to conditions: ref Kim et al. (2007); cited from earlier work.
A further series deals with rainbow trout. The following applies: relatively low concentrations in the range of ng/mL; ref Ashfield et al., 1998; cited from earlier work.
Another series has as its system male fathead minnow. As to conditions: exposed to 40,000 ng/L (40 ng/mL); ref Niemuth and Klaper, 2015; cited from earlier work.
For another series, the system named is carp. As to conditions: carp (Catla catla) exposed; ref Muthuviveganandavel et al., 2013; cited from earlier work.
The mark [5] stands for this setting: day 32, high dose, nominal ratio 10×.
Where [6] appears, read: day 32, low dose, nominal ratio 0.3×.
Setting [7] is: day 32, medium dose, nominal ratio 1×.
Where [8] appears, read: Chinook salmon (Oncorhynchus tshawytscha), juvenile, in vivo, 32 d.
[9] abbreviates: Chinook salmon (Oncorhynchus tshawytscha), juvenile, in vivo, 50 d.

Where two headings read alike, the source gives them in different places.

As to `CN(C)CCC=C1c2ccccc2CCc2ccccc21` [Amitriptyline, reference compound], the “WB conc. factor (lab / field) D 32 High” value in series [1] (setting [5]) came out at 1.41. Further, the “WB conc. factor (lab / field) D 32 Low” value in series [1] (setting [6]) was found to be 0.19.

`O=C(O)C(F)(F)C(F)(F)C(F)(F)C(F)(F)C(F)(F)F` [PFHxA]: in series [1], the “Whole-body conc D 50 High” value was 0.82 ng/g and the “Whole-body conc D 50 Med” value worked out at 0.49 ng/g.

With `O=S(=O)(O)C(F)(F)C(F)(F)C(F)(F)C(F)(F)C(F)(F)C(F)(F)C(F)(F)C(F)(F)F` [PFOS], the “WB conc. factor (lab / field) D 32 High” value in series [1] (setting [5]) was found to be 4.01. Moreover, the “WB conc. factor (lab / field) D 32 Low” value in series [1] (setting [6]) worked out at 0.17. The “WB conc. factor (lab / field) D 32 Med” value in series [1] (setting [7]) is reported as 0.22. For the same compound, in series [1], the “Whole-body conc D 50 High” value is 123 ng/g and the “Whole-body conc D 50 Med” value came out at 11.6 ng/g. Also, the “WB conc. factor (lab / field) D 50 Med” value in series [1] (day 50, medium dose) was found to be 0.34. The “Half life High” value in series [2] is 134 days.

On to `Oc1cc(Cl)ccc1Oc1ccc(Cl)cc1Cl` [Triclosan], for which the “Uncoupling of mitochondrial respiration” value in series [3] is “known uncouplers of mitochondrial respiration”.

Take `CCOC(=O)C1=C(COCCN)NC(C)=C(C(=O)OC)C1c1ccccc1Cl` (centres unmarked) [Amlodipine, reference compound]: the “WB conc. factor (lab / field) D 32 High” value in series [1] (setting [5]) is on record as 19.5. The “WB conc. factor (lab / field) D 32 Low” value in series [1] (setting [6]) was 1.15. In series [1] (setting [7]), the “WB conc. factor (lab / field) D 32 Med” value was determined as 1.12.

On to `O=C(Nc1ccc(Cl)cc1)Nc1ccc(Cl)c(Cl)c1` [Triclocarban], for which the “WB conc. factor (lab / field) D 32 High” value in series [1] (setting [5]) is listed as 1.34.

Turning to `NCCC(Oc1ccc(C(F)(F)F)cc1)c1ccccc1` (centres unmarked) [Norfluoxetine], in series [1] (setting [5]), the “WB conc. factor (lab / field) D 32 High” value stood at 5.59. The “WB conc. factor (lab / field) D 32 Low” value in series [1] (setting [6]) is given as 0.31. In addition, the “WB conc. factor (lab / field) D 32 Med” value in series [1] (setting [7]) was 0.38. In addition, the “WB conc. factor (lab / field) D 50 Med” value in series [1] (day 50, medium dose) is reported as 0.52.

As for `CN[C@H]1CC[C@@H](c2ccc(Cl)c(Cl)c2)c2ccccc21` [Sertraline, reference compound], in series [1] (setting [5]), the “WB conc. factor (lab / field) D 32 High” value is 0.53.

Turning to `NS(=O)(=O)C(F)(F)C(F)(F)C(F)(F)C(F)(F)C(F)(F)C(F)(F)C(F)(F)C(F)(F)F` [PFOSA], the “Max WB conc field Scul” value in series [4] is 2.2 ng/g. Also, in series [1] (setting [8]), the “WB conc. factor (lab / field) D 32 High” value is reported as 85.9, the “WB conc. factor (lab / field) D 32 Low” value came out at 2.74 and the “WB conc. factor (lab / field) D 32 Med” value is 4.15. Further, in series [1] (setting [9]), the “WB conc. factor (lab / field) D 50 High” value was found to be 55.9 and the “WB conc. factor (lab / field) D 50 Med” value is given as 7.0. Moreover, in series [3], the “Uncoupling of mitochondrial respiration” value was “known uncouplers of mitochondrial respiration”.

In the case of `COc1ccc([C@@H]2Sc3ccccc3N(CCN(C)C)C(=O)[C@@H]2OC(C)=O)cc1` [Diltiazem, reference compound], the “96h LC50” value in the series with fish was 15 µg/mL. For the same compound, the “WB conc. factor (lab / field) D 32 High” value in series [1] (setting [5]) is 63.8. The “WB conc. factor (lab / field) D 32 Low” value in series [1] (setting [6]) was 10.7. Moreover, the “WB conc. factor (lab / field) D 32 Med” value in series [1] (setting [7]) worked out at 6.56. Moreover, the “WB conc. factor (lab / field) D 50 Med” value in series [1] (day 50, medium dose) is given as 2.37.

For `CN(C)CCOC(c1ccccc1)c1ccccc1` [Diphen hydramine, reference compound], the “WB conc. factor (lab / field) D 32 High” value in series [1] (setting [5]) worked out at 5.37. The “WB conc. factor (lab / field) D 32 Low” value in series [1] (setting [6]) is recorded as 0.67. In addition, the “WB conc. factor (lab / field) D 32 Med” value in series [1] (setting [7]) turned out to be 0.43.

As to nonylphenol diethoxylate, the “Growth in rainbow trout” value in the series on rainbow trout is listed as “inhibited growth”.

For `Clc1ccc(COC(Cn2ccnc2)c2ccc(Cl)cc2Cl)c(Cl)c1` (centres unmarked) [Miconazole, reference compound], the “WB conc. factor (lab / field) D 32 High” value in series [1] (setting [5]) is listed as 7.39. In addition, in series [1] (setting [6]), the “WB conc. factor (lab / field) D 32 Low” value worked out at 0.64.

Turning to `Cc1ccc(C)c(OCCCC(C)(C)C(=O)O)c1` [Gemfibrozil, reference compound], the “WB conc. factor (lab / field) D 32 High” value in series [1] (setting [5]) is 2.57.

In the case of `CNCCN1C(=O)[C@H](OC(C)=O)[C@H](c2ccc(OC)cc2)Sc2ccccc21` [Desmethyl-diltiazem], the “WB conc. factor (lab / field) D 32 High” value in series [1] (setting [5]) is on record as 108. Also, the “WB conc. factor (lab / field) D 32 Low” value in series [1] (setting [6]) is given as 4.67. For the same compound, the “WB conc. factor (lab / field) D 32 Med” value in series [1] (setting [7]) is reported as 9.00. Besides, in series [1], the “Whole-body conc D 50 High” value is 119 ng/g and the “Whole-body conc D 50 Med” value was 14.4 ng/g. In addition, the “WB conc. factor (lab / field) D 50 Med” value in series [1] (day 50, medium dose) amounted to 9.6.

For the compound `CN(C)C(=N)N=C(N)N` [Metformin, reference compound], the “WB conc. factor (lab / field) D 32 High” value in series [1] (setting [5]) is on record as 1.42. In addition, in series [1] (setting [6]), the “WB conc. factor (lab / field) D 32 Low” value was 0.16. Further, the “Growth in male fathead minnow” value in the series on male fathead minnow is listed as “reduced growth”.

Regarding `CC[C@H]1OC(=O)[C@H](C)[C@@H](O[C@H]2C[C@@](C)(OC)[C@@H](O)[C@H](C)O2)[C@H](C)[C@@H](O[C@@H]2O[C@H](C)C[C@H](N(C)C)[C@H]2O)[C@](C)(O)C[C@@H](C)CN(C)[C@H](C)[C@@H](O)[C@]1(C)O` [Azithromycin, reference compound], the “WB conc. factor (lab / field) D 32 High” value in series [1] (setting [5]) amounted to 17.1. Also, the “WB conc. factor (lab / field) D 32 Low” value in series [1] (setting [6]) is on record as 1.67. Moreover, the “WB conc. factor (lab / field) D 32 Med” value in series [1] (setting [7]) was found to be 1.03. Also, the “WB conc. factor (lab / field) D 50 Med” value in series [1] (day 50, medium dose) is listed as 1.42.

`O=C(O)C(F)(F)C(F)(F)C(F)(F)C(F)(F)C(F)(F)C(F)(F)C(F)(F)C(F)(F)C(F)(F)F` [PFDA]: the “WB conc. factor (lab / field) D 32 High” value in series [1] (setting [5]) was 39.9. Besides, the “WB conc. factor (lab / field) D 32 Low” value in series [1] (setting [6]) came out at 1.68. In addition, the “WB conc. factor (lab / field) D 32 Med” value in series [1] (setting [7]) is listed as 2.76. Further, in series [1], the “Whole-body conc D 50 High” value turned out to be 14.4 ng/g and the “Whole-body conc D 50 Med” value stood at 2.05 ng/g. For the same compound, in series [1] (day 50, medium dose), the “WB conc. factor (lab / field) D 50 Med” value came to 2.63. Further, in series [2], the “Half life High” value came to 16.2 days. Also, the “Half life Med” value in series [2] (medium dose) was 262 days.

nonylphenol: the “Growth in rainbow trout” value in the series on rainbow trout is listed as “inhibited growth”.

Regarding octylphenol, the “Growth in rainbow trout” value with rainbow trout was “inhibited growth”.

With `CC1(C)C(C=C(Cl)Cl)C1C(=O)OC(C#N)c1cccc(Oc2ccccc2)c1` (centres unmarked) [cypermethrin], the “Plasma enzymes ALT, AMYL, and acid phosphatase” value with carp is “large reductions”.

In the case of `CNCCC(Oc1ccc(C(F)(F)F)cc1)c1ccccc1` (centres unmarked) [Fluoxetine, reference compound], the “WB conc. factor (lab / field) D 32 High” value in series [1] (setting [5]) came to 4.00. Also, the “WB conc. factor (lab / field) D 32 Low” value in series [1] (setting [6]) is reported as 0.29. Besides, in series [1] (setting [7]), the “WB conc. factor (lab / field) D 32 Med” value was 0.21. In series [1] (day 50, medium dose), the “WB conc. factor (lab / field) D 50 Med” value turned out to be 0.19.
